Data reported in patent publication US7273882B2, “Aminoacetamide acyl guanidines as β-secretase inhibitors” (priority 2006, dated 2007).

biological target: T1, BACE1 enzyme (Homo sapiens, UniProt P56817); test: Radioligand displacement (binding) assay with radiolabeled BACE inhibitor on HEK293-9B.A1 cell homogenate; details: not given
T1 construct: was derived from HEK293 cells; endogenous in cells; washed 48,000 x g pellet of the cell homogenate
Text: There are a number of methods by which inhibitors of the BACE enzyme can be identified experimentally. The enzyme can be obtained from membrane samples from natural tissues or cultured cells or can be expressed recombinantly in a host cell by well known methods of molecular biology. The whole enzyme or a portion thereof can be expressed, for example, in bacterial, insect or mammalian cells to obtain a catalytically active enzyme species. The enzymatic activity and/or ligand binding capability of the enzyme can be assessed within these membrane samples, or the enzyme can be purified to varying extents. As an illustrative example, the nucleic acid sequence encoding the pro and catalytic domains of human BACE can be appended on the 5′ end with an untranslated and signal sequence from the gene for acetylcholinesterase, and on the 3′ end with a sequence encoding a poly-histidine tag. This cDNA can then be expressed in Drosophila melanogaster S2 cells in which the signal and pro sequences of the transcribed/translated protein are removed by cellular proteases and the catalytic domain, appended by a C-terminal poly-histidine tag, is secreted out into the cellular medium. The enzyme can then be purified from the culture medium by nickel affinity chromatography by methods well known to those trained in the art [Mallender, W. et al., (2001) “Characterization of recombinant, soluble beta-secretase from an insect cell expression system.” Mol. Pharmacol. 59: 619-626]. Similar strategies for expressing and purifying various forms of BACE in bacterial, mammalian and other cell types would be known to one skilled in the art., A preferred method for determining the potency of a test compound in binding to the BACE enzyme is by monitoring the displacement of a suitable radioligand.
Radioligand displacement assays with a radiolabeled BACE inhibitor (WO 2004 013098, compound 3, where the methoxy group is substituted for C(^3H)3) were carried out using standard methods (Keen, M. (1999) in Receptor Binding Techniques (Walker, J. M. ed) p. 106 Humana Press, Totowa, N.J.). The HEK293-9B.A1 cell line, which overexpresses the BACE1 enzyme, was derived from HEK293 cells (Simmons, N. L. (1990) A cultured human renal epithelioid cell line responsive to vasoactive intestinal peptide. Exp. Physiol. 75:309-19.) by RAGE™ (Harrington, J. J. et al. (2001) Creation of genome-wide protein expression libraries using random activation of gene expression. Nat. Biotechnol. 19:440-5.; U.S. Pat. Nos. 6,410,266 and 6,361,972). T225 flask cultures of HEK293-9B.A1 were grown to 80% confluency in DMEM supplemented with 2 mM L-glutamine, 10 μg/ml penicillin, 10 μg/ml streptomycin, 3 μg/ml puromycin, 100 nM methotrexate, and 10% fetal bovine serum (Invitrogen, Carlsbad, Calif.), harvested, and resuspended at 2×10^8 cells per 10 ml of lysis buffer consisting of 50 mM HEPES pH 7.0 containing a protease inhibitor cocktail of AEBSF 104 μM, aprotinin 80 nM, leupeptin 2 μM, bestatin 4 μM, pepstatin A 1.5 μM, and E-64 1.4 μM (0.1% of protease inhibitor cocktail P8340, Sigma-Aldrich, St. Louis, Mo.) at 4° C. The resuspended cells were homogenized using a Polytron (Brinkman, Westbury, N.Y.) at setting 6 for 10 sec., then centrifuged at 48,000×g for 10 min. The resulting pellet was washed by repeating the resuspension, homogenization and centrifugation steps. The final pellet was resuspended in buffer at 4° C. to yield a total protein concentration of 5 mg/ml, then aliquots were frozen in liquid nitrogen for further storage at −70° C. Immediately before carrying out a binding assay, an aliquot of cell homogenate was thawed and diluted to a concentration of 100 μg/ml in assay buffer consisting of 50 mM HEPES pH 5.0 and 0.1% CHAPSO. […]

T1 sequence (P56817 46-501): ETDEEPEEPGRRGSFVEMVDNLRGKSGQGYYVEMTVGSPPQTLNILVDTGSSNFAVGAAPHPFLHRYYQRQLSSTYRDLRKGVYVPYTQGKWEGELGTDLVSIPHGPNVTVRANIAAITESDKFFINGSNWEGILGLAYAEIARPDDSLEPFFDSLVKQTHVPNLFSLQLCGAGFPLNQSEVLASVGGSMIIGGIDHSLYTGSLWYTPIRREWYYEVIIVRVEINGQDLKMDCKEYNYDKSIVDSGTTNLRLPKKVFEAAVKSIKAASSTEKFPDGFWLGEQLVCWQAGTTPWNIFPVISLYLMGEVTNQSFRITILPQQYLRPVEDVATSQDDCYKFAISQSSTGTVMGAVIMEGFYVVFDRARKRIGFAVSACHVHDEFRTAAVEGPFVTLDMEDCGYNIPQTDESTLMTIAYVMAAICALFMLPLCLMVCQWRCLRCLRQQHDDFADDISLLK

COC/C=C/c1cc(Cl)cc(CN/C(N)=N/C(=O)c2c(-c3ccc(OC)cc3)noc2C)c1 [Example 152, N-((3-chloro-5-((E)-3-methoxyprop-1-enyl)benzylamino)(amino)methylene)-3-(4-methoxyphenyl)-5-methylisoxazole-4-carboxamide] was tested. Which IC50 did it give?
Its IC50 is 100 to 1000 nM.

With COc1ccc(-c2n[nH]c(C)c2C(=O)N=C(N)NCc2cc(Cl)c(N)c(Cl)c2)cc1 [Example 132] as the compound, how does the IC50 read?
Its IC50 is 100 to 1000 nM.

COc1ccc(-c2noc(C)c2C(=O)/N=C(/N)NCc2cc(Cl)c(N)c(Br)c2)cc1 [Example 148, N-((3-Bromo-4-amino-5-chlorobenzylamino)(amino)methylene)-3-(4-methoxyphenyl)-5-methylisoxazole-4-carboxamide] was tested. Which IC50 did it give?
The IC50 was 100 to 1000 nM.

With COC/C=C/c1cc(CN/C(N)=N/C(=O)c2c(-c3ccc(OC)cc3)noc2C)cc(Cl)c1N [Example 153, N-((4-amino-3-chloro-5-((E)-3-methoxyprop-1-enyl)benzylamino) (amino)methylene)-3-(4-methoxyphenyl)-5-methylisoxazole-4-carboxamide] as the compound, how does the IC50 read?
Its IC50 is under 100 nM.

CCOC(=O)NCc1cc(Cl)cc(CN/C(N)=N/C(=O)c2c(-c3ccc(OC)cc3)noc2C)c1 [Example 203] was tested. Which IC50 did it give?
Its IC50 is 100 to 1000 nM.

For COc1ccc(-c2nsc(C)c2C(=O)/N=C(\N)NCc2cc(Cl)cc(CNC(=O)/C=C/c3ccccc3)c2)cc1 [Example 237, N-(((E)-3-chloro-5-(cinnamamidomethyl)benzylamino)(amino)methylene)-3-(4-methoxyphenyl)-5-methylisothiazole-4-carboxamide], which IC50 is on record?
Its IC50 is under 100 nM.

How did the IC50 turn out when COc1ccc(-c2nsc(C)c2C(=O)/N=C(/N)NCc2cc(Cl)c(N)c(Br)c2)cc1 [Example 150, N-((3-Bromo-4-amino-5-chlorobenzylamino)(amino)methylene)-3-(4-methoxyphenyl)-5-methylisothiazole-4-carboxamide] was run?
The IC50 was under 100 nM.

For COc1ccc(-c2noc(C)c2C(=O)N=C(N)NCc2cc(Cl)cc(C=CCCO)c2)cc1 [Example 168], which IC50 is on record?
The IC50 was 100 to 1000 nM.

How did the IC50 turn out when COc1ccc(-c2nsc(C)c2C(=O)/N=C(\N)NCc2cc(Cl)c(NC(C)=O)c(Cl)c2)cc1 [Example 279, (E)-N-((4-acetamido-3,5-dichlorobenzylamino)(amino)methylene)-3-(4-methoxyphenyl)-5-methylisothiazole-4-carboxamide] was run?
The IC50 was under 100 nM.

COc1ccc(-c2nsc(C)c2C(=O)/N=C(/N)NCc2cc(Cl)c(N)c(Cl)c2)cc1 [Example 149, N-((4-amino-3,5-dichlorobenzylamino)(amino)methylene)-3-(4-methoxyphenyl)-5-methylisothiazole-4-carboxamide] was tested. Which IC50 did it give?
The IC50 was under 100 nM.

How did the IC50 turn out when Cc1noc(-c2ccccc2)c1C(=O)/N=C(\N)NCc1cc(Cl)c(N)c(Cl)c1 [Example 22] was run?
Its IC50 is 100 to 1000 nM.

Which IC50 does the source give for COc1ccc(-c2nsc(C)c2C(=O)NC(N)=NCc2cc(C)c(NC(C)=O)c(Cl)c2)cc1 [Example 144] here?
Its IC50 is under 100 nM.

COC/C=C/c1cc(CN/C(N)=N/C(=O)c2c(-c3ccc(OC)cc3)nsc2C)cc(Cl)c1N [Example 154, N-((4-amino-3-chloro-5-((E)-3-methoxyprop-1-enyl)benzylamino) (amino)methylene)-3-(4-methoxyphenyl)-5-methylisothiazole-4-carboxamide] was tested. Which IC50 did it give?
Its IC50 is under 100 nM.

same assay, conditions: radioligand displacement, HEK293-9B.A1 cell homogenate overexpressing BACE1; read-out: Activity Rating (activity based on IC50 values)

COc1ccc(-c2noc(C)c2C(=O)/N=C(\N)NCc2cc(Cl)c(NC(=O)CN(C)C)c(Cl)c2)cc1 [Example 280, (E)-N-((3,5-dichloro-4-(2-(dimethylamino)acetamido)benzylamino)(amino)methylene)-3-(4-methoxyphenyl)-5-methylisoxazole-4-carboxamide] was tested. Which IC50 did it give?
Its IC50 is under 100 nM.

With COc1ccc(-c2nsc(C)c2C(=O)/N=C(\N)NCc2cc(Cl)c(NC(=O)CN(C)C)c(Cl)c2)cc1 [Example 327] as the compound, how does the IC50 read?
Its IC50 is under 100 nM.
